Test results from patent US7807712B2, “Oxy substituted chalcones as antihyperglycemic and antidyslipidemic agents” (priority 2004, dated 2010).
Read-outs that look alike come from different tables or passages of the source.

Columns and labels:
sucrose loaded rats = assay: Sucrose loaded rat model (SLM), antihyperglycemic activity; format: in vivo, rat (Charles Foster/Wistar); details: for inhibition in vivo at 100 mg/kg: Rattus norvegicus, 2 h, 100 mg/kg oral, sucrose load 10.0 g/kg, AUC vs control, 30-120 min, read-out: % Fall in blood glucose levels SLM; for activity in SLM model: summary statement
Procedure: Male albino rats of Charles Foster/Wistar strain of average body weight 160±20 g were selected for this study. The blood glucose level of each animal was checked by glucometer using glucostrips (Boehringer Mannheim) after 16 h starvation. Animals showing blood glucose levels between 3.33 to 4.44 mM (60 to 80 mg/dl) were divided into groups of five to six animals in each. Animals of experimental group were administered suspension of the desired synthetic compound orally (made in 1.0% gum acacia) at a dose of 100-mg/kg-body weight. Animals of control group were given an equal amount of 1.0% gum acacia. A sucrose load (10.0 g/kg) was given to each animal orally exactly after 30 min post administration of the test sample/vehicle. Blood glucose profile of each rat was again determined at 30, 60, 90 and 120 min post administration of sucrose by glucometer. Food but not water was withheld from the cages during the course of experimentation. Quantitative glucose tolerance of each animal was calculated by Area Under Curve (AUC) method (Prism Software). Comparing the AUC of experimental and control groups determined the percentage antihyperglycemic activity. Statistical comparison was made by Dunnett's test.

db/db mice = assay: Antihyperglycemic activity in db/db mice; format: in vivo, mouse (C57BL/KsBom-db); details: for % Fall in blood glucose levels 6 days / % Fall in blood glucose levels 10 days: db/db mice; for % Fall in blood glucose levels 6 days: day 6 postprandial protocol; for % Fall in blood glucose levels 10 days: day 10 OGTT, glucose 3 gm/kg
From the text: The db/db mouse is a well-characterized model of […]. The background for the db/db mouse is the C57BL/Ks strain. The major deficiency of the C57BL/KsBom-db mouse (db/db) is lack of a functional leptin receptor. This leads to defective leptin signaling and a complete lack of feedback from leptin. […] The db/db mouse develops NIDDM from around week 10. The disease is stable until week 20, where destruction of pancreatic β-cells can be recognized clinically as decreasing levels of plasma insulin and very severe hyperglycemia. The male mice are more diabetic than female and will normally die earlier. The advantage of using male mice for experimental purposes is that the fluctuations in plasma parameters are less than in the females where the estrogen cycle affects the clinical diabetes mellitus. The optimal age of db/db mice used for experiments will be from week 12 to 18 when they have developed NIDDM with diabetic dyslipidemia but still have functional β-cells in the pancreas. C57BL/KsBom-db mice 12-18 weeks, 40-50 g bred in the animal house of CDRI, Lucknow. 10 male mice were used in the experiments. The mice were housed in groups of 5 individuals in a room controlled for temperature (23±2° C.) and 12/12 hours light/dark cycle (lights on at 6.00 am). Body weight was measured daily from day 1 to day 10. All animals had free access to fresh water and to normal chow except on the days of the postprandial protocol day 6 and during the overnight fast before the OGTT on day 10. Blood glucose was checked every morning up till day 5. On day 6 postprandial protocol was employed, in this method blood glucose was checked at −0.30 min and 0 h. Test compounds were given to the treatment group whereas control group received only gum acacia (1.0%); the blood glucose was again checked at 1, 2, 3, 4 and 6 h post test compound treatment. Finally on day 10 an oral glucose tolerance test (OGTT) was performed after an overnight fasting. Blood glucose was measured at −0.30 min and test drugs were fed, blood glucose was again measured at 0.0 min post treatment, at this juncture glucose solution was given at a dose of 3 gm/kg to all the groups including control group; the profile of blood glucose was checked at 30 min, 60 min, 90 min and 120 min post glucose administration. Quantitative glucose tolerance of each animal was calculated by Area Under Curve (AUC) method (Prism Software). Comparing the AUC of experimental and control groups determined the percentage antihyperglycemic activity. Statistical comparison was made by Dunnett's test.

[1] = system: triton WR-1339 induced hyperlipidemic rats; assay: Triton model, antidyslipidemic activity; format: in vivo, rat (Charles foster); details: Rattus norvegicus, 100 mg/kg oral
Procedure: Male Charles foster rats weighing 200-225 g were divided into control, hyperlipidemic and hyperlipidemic plus drug treated groups containing six animals in each group. Hyperlipidemia was induced by administration of triton WR-1339 (200 mg/kg i.p.). All animals were maintained on a special pellet diet and water ad libitum. Compounds and standard drug were macerated with 0.2% aqueous gum acacia suspension. The suspension was fed orally at the dose of 100 mg/kg simultaneously with triton in drug treated group. The animals of control group received the same amount of gum acacia by similar route of administration. At the end of the experiment, after 18 h, blood was withdrawn from retro orbital plexus and plasma was used for the assay of total cholesterol, phospholipid and triglycerides.
Cholesterol was estimated using the kit provided by Roche Diagnostics. Cholesterol esters are enzymatically hydrolyzed by cholesterol esterase (CE) to cholesterol and free fatty acids. Free cholesterol, including that originally present, is then oxidized by cholesterol oxidase (CO) to cholest-4-en-3-one and hydrogen peroxide. The hydrogen peroxide combines with hydroxy benzoic acid (HBA) and 4-aminoantipyrine (4AAA) in the presence of peroxidase (POD) to form a chromophore (quinoneimine dye), which may be quantitated at 500-505 nm. The intensity of red colour formed is directly proportional to the concentration of total cholesterol in the specimen and measured spectrophotometrically (Searcy, C. L. Diagnostic Biochemistry, 1969, McGraw Hill, New York; Ellefson, R. D.; Caraway, W. T. Fundamentals of clinical chemistry, 1976, Ed Tietz N W, 506-515.)
Triglycerides were estimated using the kit provided by Roche Diagnostics. Lipoprotein lipase hydrolyses triglycerides to yield glycerol and fatty acids. Glycerol kinase converts glycerol to glycerol-3-phosphate, which is oxidized by glycerol phosphate oxidase to dihydroxy acetone phosphate and hydrogen peroxide. In the presence of peroxidase, hydrogen peroxide oxidatively couples with 4-aminoantipyrine and 4-chloro phenol to produce red quinonimine dye. The intensity of red colour formed is directly proportional to the concentration of triglycerides in the specimen and is measured by photometrically (Wahlefeld, A. W.; Bergmeyer, H. U. Ed. Methods of enzymatic analysis, 2nd English edition, New York, N.Y., Academic press inc, 1831-1840.).
Serum (0.2 mL) and perchloric acid (1.0 mL) was digested at 180° C. for 1-1.5 h till the solution became colorless. The liberated inorganic phosphate (Pi) was measured by the method of Fiske and Subbarow (Fiske, C. H.; Subbarow, V. J. Biol. Chem. 1925, 66, 375.). 1 mL of 2.5% ammonium molybdate (prepared in 5 N sulphuric acid) and 0.5 mL reducing agent (4-amino naphthol sulphonic acid, 0.2%), sodium metabisulphite (2.4% w/v in distilled water) was added to the above tubes and mixed well. The reaction mixture was […] with 2.5 mL of triple distilled water and kept at 60° C. in water bath for 20 min. For standard, an appropriate amount of potassium dihydrogen phosphate dissolved in triple distilled water containing 2-10 μg phosphorus (Pi) was run simultaneously with the experiment tubes. The optical density of the blue colour was recorded at 620 nm against reagent blank. The values of Pi were converted into phospholipid by multiplying with 25 (a constant calibrated from Pi value of lecithin).

[2] = plasma phospholipid after 18 h, read-out: % Fall in lipid levels (Triton model) PL
[3] = plasma total cholesterol after 18 h, read-out: % Fall in lipid levels (Triton model) TC
[4] = plasma triglycerides after 18 h, read-out: % Fall in lipid levels (Triton model) TG

SMILES	inhibition in vivo at 100 mg/kg (sucrose loaded rats)	activity in SLM model (sucrose loaded rats)	% Fall in blood glucose levels 6 days (db/db mice)	% Fall in blood glucose levels 10 days (db/db mice)	inhibition in vivo at 100 mg/kg [1, 2]	inhibition in vivo at 100 mg/kg [1, 3]	inhibition in vivo at 100 mg/kg [1, 4]	lowering of blood glucose in db/db mice (db/db mice; summary statement)
CC(C)(C)NCC(O)COc1ccc(C(=O)/C=C/c2ccc3c(c2)OCO3)cc1 (stereo not drawn) [Compound 34, 4′-[^3-tert-Butylamino-2-hydroxy-propoxy]-3,4-methylenedioxy-chalcone]	21.1%	significant results	NIL	32.0%	20%	26%	18%	
O=C1NC(=O)/C(=C\c2ccc(OCCCCCOc3cccc(C(=O)/C=C/c4ccc5c(c4)OCO5)c3)cc2)S1 [Compound 46, 3,4-Methylenedioxy-3′-{5-[4-(thiazolidin-2,4-dione-5-ylidinemethyl)-phenoxy]-pentyloxy}-chalcone]	13.4%		1.76%	23.1%	20%	13%	20%	significant lowering of blood glucose
COc1ccc(/C=C/C(=O)c2ccc(OCC(O)CN3CCN(c4ccccc4)CC3)cc2)cc1OC (stereo not drawn) [Compound 18, 3,4-Dimethoxy-4′-[2-hydroxy-3-(4-phenylpiperazin-1-yl)-propoxy]-chalcone]	15.4%	significant results	29.9%	18.9%	8%	20%	12%	
